Measured values reported in US8415115B2, “Reaction medium for methicillin-resistant Staphylococcus aureus (MRSA) bacteria” (Biomerieux, priority 2008, dated 2013).

Assays:
[1] = tested on: Methicillin-resistant Staphylococcus aureus (MRSA); assay: Detection of MRSA strains (colored colonies) on chromID MRSA based media with alpha-glucosidase substrates and antibiotics; assay type: cell-based; details: Example B, alpha-glucosidase substrates
Method: The media tested in the experiments hereinafter were media comprising the chromID MRSA medium (bioMérieux ref. 43 451) as basic medium, and comprising the following elements: • Medium T: chromID MRSA control medium (ref. 43 451), comprising in particular an X-N-methyl-alpha-glucoside substrate, at a concentration of 0.1 g/l, and Cefoxitin at 4 mg/1. • Medium S: medium T, also comprising an X-alpha-glucoside substrate, at a concentration of 25, 37, 45 or 50 mg/l. • Medium A: medium S (X-alpha-glucoside concentration: 45 mg/l), the Cefoxitin being substituted with Ceftriaxone, at a concentration of 1, 2, 4, 8, 16, 32 mg/l. • Medium B: medium S (X-alpha-glucoside concentration: 45 mg/l), the Cefoxitin being substituted with Cefotaxime at a concentration of 1, 2, 4, 8, 16, 32 mg/l. • Medium C: medium S (X-alpha-glucoside concentration: 45 mg/l), the Cefoxitin being substituted with Ertapenem at a concentration of 0.1, 0.25, 0.5, 0.75, 1 mg/l. • Medium D: medium S (X-alpha-glucoside concentration: 45 mg/l), the Cefoxitin being substituted with Cefoperazone at a concentration of 0.5, 1, 1.5, 2 mg/l. • Medium E: medium S (X-alpha-glucoside concentration: 45 mg/l), the Cefoxitin being substituted with Cefpodoxime at a concentration of 0.5, 1, 1.5, 2 mg/l. • Medium F: medium S (X-alpha-glucoside concentration: 45 mg/l), the Cefoxitin being substituted with a Cefoxitin/Cefotaxime concentration at the concentrations below:
• Medium G: medium S (X-alpha-glucoside concentration: 45 mg/l), the Cefoxitin being substituted with a Cefoxitin/Ceftriaxone combination at the concentrations below:
• Medium H: medium S (X-alpha-glucoside concentration: 45 mg/l), the Cefoxitin being substituted with a Cefoxitin/Ertapenem combination at the concentrations below:
• Medium I: medium S (X-alpha-glucoside concentration: 45 mg/l), the Cefoxitin being substituted with a Cefoxitin/Cefpodoxime combination at the concentrations below:
• Medium J: medium S (X-alpha-glucoside concentration: 45 mg/1), the Cefoxitin being substituted with a Cefoxitin/Cefoperazone combination at the concentrations below:
• Medium K: medium S (X-alpha-glucoside concentration: 45 mg/l), the Cefoxitin being substituted with a Cefoxitin/Cefotaxime combination, at the concentrations below, also comprising a mixture of inhibitors that favour the growth of Staphylococcus aureus.
• Medium L: medium S (X-alpha-glucoside concentration: 45 mg/l), the Cefoxitin being substituted with Cefdinir at a concentration of 0.25, 0.5, 1, 2, 4, 8 mg/l. • Medium M: medium S (X-alpha-glucoside concentration: 45 mg/l), the Cefoxitin being substituted with a Cefoxitin/Cefdinir combination at the concentrations below: […]
The strains detected correspond to the strains forming colored colonies on the medium.

MSSAs = assay: Sub-inhibitory concentration: below the antibiotic concentration required for inhibition of MSSAs in a culture medium; assay type: cell-based, Staphylococcus aureus; details: culture medium such as chromID S. aureus medium
Method: The sub-inhibitory concentration is intended to mean a concentration below the concentration of antibiotic required for inhibition of MSSAs, in a culture medium suitable for searching for S. aureus using a biological sample, such as the chromID™ S. aureus medium (bioMerieux). This concentration is below approximately 3 mg/l in the case of Cefoxitin, approximately 2 mg/l in the case of Cefotaxime, approximately 1 mg/l in the case of Ertapenem, approximately 2 mg/l in the case of Cefoperazone, approximately 2 mg/l in the case of Cefpodoxime, and approximately 1 mg/l in the case of Cefdinir.

Row | Structure (SMILES) | Sensitivity and specificity, MRSAs distinguished from MSSAs (in words) [1] | Sub-inhibitory concentration (MSSAs) [mg/L]
1 | CCN1CCN(C(=O)N[C@@H](C(=O)N[C@@H]2C(=O)N3C(C(=O)O)=C(CSc4nnnn4C)CS[C@H]23)c2ccc(O)cc2)C(=O)C1=O [Cefoperazone] | did not make it possible to obtain, on their own, a sensitivity and a specificity enabling MRSAs to be distinguished from MSSAs | 
2 | CO/N=C(\C(=O)N[C@@H]1C(=O)N2C(C(=O)O)=C(CSc3nc(=O)c(=O)[nH]n3C)CS[C@H]12)c1csc(N)n1 [Ceftriaxone] | did not make it possible to obtain, on their own, a sensitivity and a specificity enabling MRSAs to be distinguished from MSSAs | 
3 | CO[C@@]1(NC(=O)Cc2cccs2)C(=O)N2C(C(=O)O)=C(COC(N)=O)CS[C@@H]21 [Cefoxitin] |  | < 3
4 | C[C@@H](O)[C@H]1C(=O)N2C(C(=O)O)=C(S[C@@H]3CN[C@H](C(=O)Nc4cccc(C(=O)O)c4)C3)[C@H](C)[C@H]12 [Ertapenem] | did not make it possible to obtain, on their own, a sensitivity and a specificity enabling MRSAs to be distinguished from MSSAs | 
5 | CO/N=C(\C(=O)N[C@@H]1C(=O)N2C(C(=O)O)=C(COC(C)=O)CS[C@H]12)c1csc(N)n1 [Cefotaxime] | did not make it possible to obtain, on their own, a sensitivity and a specificity enabling MRSAs to be distinguished from MSSAs | 
